From the NIST ThermoML archive (doi:10.1021/je201002j)

How the values were obtained:
[1] = 101.33 kPa, Liquid, Vibrating tube method
[2] = molar heat capacity at constant pressure; conditions: 101.33 kPa, Liquid, Small sample (50 mg) DSC

ClCCCCCBr [1-bromo-5-chloropentane]
[1]
Conditions | mass density [kg/m3]
288.15 K | 1409.7
298.15 K | 1399.37
308.15 K | 1388.77
318.15 K | 1377.96

ClCCCBr [1-bromo-3-chloropropane]
[1]
Conditions | mass density [kg/m3]
288.15 K | 1601.96
298.15 K | 1588.17
308.15 K | 1574.87
318.15 K | 1560.65

ClCCCCBr [1-bromo-4-chlorobutane]
[1]
Conditions | mass density [kg/m3]
288.15 K | 1496.19
298.15 K | 1485.12
308.15 K | 1473.33
318.15 K | 1460.96

BrCCCCCCCCCBr [1,9-dibromononane]
[2]
Conditions | molar heat capacity at constant pressure [J/K/mol]
286.65 K | 330.9
288.15 K | 331.44
289.65 K | 332
291.15 K | 332.56
292.65 K | 333.14
294.15 K | 333.72
295.65 K | 334.3
297.15 K | 334.9
298.15 K | 335.29
298.65 K | 335.5
300.15 K | 336.1
301.65 K | 336.72
303.15 K | 337.34
304.65 K | 337.96
306.15 K | 338.59
307.65 K | 339.23
309.15 K | 339.87
310.65 K | 340.52
312.15 K | 341.17
313.65 K | 341.83
315.15 K | 342.49
316.65 K | 343.16
318.15 K | 343.83
319.65 K | 344.5
321.15 K | 345.18
322.65 K | 345.86
324.15 K | 346.54
325.65 K | 347.22
327.15 K | 347.91
328.65 K | 348.6
330.15 K | 349.3
331.65 K | 349.99
333.15 K | 350.69
334.65 K | 351.39
336.15 K | 352.08
337.65 K | 352.78
339.15 K | 353.49
340.65 K | 354.19
342.15 K | 354.89
343.65 K | 355.59
345.15 K | 356.29
346.65 K | 356.99
348.15 K | 357.69
349.65 K | 358.39
351.15 K | 359.09
352.65 K | 359.79
354.15 K | 360.49
355.15 K | 360.95

ClCCCCCCBr [1-bromo-6-chlorohexane]
[1]
Conditions | mass density [kg/m3]
288.15 K | 1345.17
298.15 K | 1336.47
308.15 K | 1327.17
318.15 K | 1316.45

BrCCCCCCCCCCCBr [1,11-dibromoundecane]
[2]
Conditions | molar heat capacity at constant pressure [J/K/mol]
285.15 K | 389.4
286.65 K | 389.99
288.15 K | 390.59
289.65 K | 391.2
291.15 K | 391.83
292.65 K | 392.47
294.15 K | 393.12
295.65 K | 393.79
297.15 K | 394.47
298.15 K | 394.92
298.65 K | 395.16
300.15 K | 395.85
301.65 K | 396.56
303.15 K | 397.28
304.65 K | 398.01
306.15 K | 398.75
307.65 K | 399.5
309.15 K | 400.25
310.65 K | 401.02
312.15 K | 401.79
313.65 K | 402.57
315.15 K | 403.35
316.65 K | 404.15
318.15 K | 404.94
319.65 K | 405.75
321.15 K | 406.56
322.65 K | 407.37
324.15 K | 408.19
325.65 K | 409.01
327.15 K | 409.84
328.65 K | 410.67
330.15 K | 411.5
331.65 K | 412.33
333.15 K | 413.17
334.65 K | 414.01
336.15 K | 414.84
337.65 K | 415.68
339.15 K | 416.53
340.65 K | 417.37
342.15 K | 418.21
343.65 K | 419.04
345.15 K | 419.88
346.65 K | 420.72
348.15 K | 421.55
349.65 K | 422.38
351.15 K | 423.21
352.65 K | 424.04
354.15 K | 424.86
355.15 K | 425.41

BrCCCCCCCCBr [1,8-dibromooctane]
[2]
Conditions | molar heat capacity at constant pressure [J/K/mol]
288.15 K | 302.23
289.65 K | 302.83
291.15 K | 303.43
292.65 K | 304.03
294.15 K | 304.63
295.65 K | 305.23
297.15 K | 305.83
298.15 K | 306.23
298.65 K | 306.43
300.15 K | 307.03
301.65 K | 307.63
303.15 K | 308.23
304.65 K | 308.82
306.15 K | 309.42
307.65 K | 310.02
309.15 K | 310.61
310.65 K | 311.21
312.15 K | 311.8
313.65 K | 312.39
315.15 K | 312.99
316.65 K | 313.58
318.15 K | 314.17
319.65 K | 314.76
321.15 K | 315.35
322.65 K | 315.94
324.15 K | 316.53
325.65 K | 317.12
327.15 K | 317.71
328.65 K | 318.3
330.15 K | 318.88
331.65 K | 319.47
333.15 K | 320.05
334.65 K | 320.64
336.15 K | 321.22
337.65 K | 321.81
339.15 K | 322.39
340.65 K | 322.97
342.15 K | 323.56
343.65 K | 324.14
345.15 K | 324.72
346.65 K | 325.3
348.15 K | 325.88
349.65 K | 326.46
351.15 K | 327.04
352.65 K | 327.62
354.15 K | 328.19
355.15 K | 328.58

ClCCBr [1-bromo-2-chloroethane]
[1]
Conditions | mass density [kg/m3]
288.15 K | 1742.45
298.15 K | 1726.56
308.15 K | 1710.57
318.15 K | 1693.61

BrCCCCCCCCCCCCBr [1,12-dibromododecane]
[2]
Conditions | molar heat capacity at constant pressure [J/K/mol]
310.65 K | 432.62
312.15 K | 433.39
313.65 K | 434.17
315.15 K | 434.98
316.65 K | 435.79
318.15 K | 436.62
319.65 K | 437.46
321.15 K | 438.31
322.65 K | 439.17
324.15 K | 440.04
325.65 K | 440.91
327.15 K | 441.8
328.65 K | 442.68
330.15 K | 443.57
331.65 K | 444.47
333.15 K | 445.36
334.65 K | 446.26
336.15 K | 447.15
337.65 K | 448.04
339.15 K | 448.93
340.65 K | 449.82
342.15 K | 450.69
343.65 K | 451.57
345.15 K | 452.43
346.65 K | 453.29
348.15 K | 454.13
349.65 K | 454.96
351.15 K | 455.78
352.65 K | 456.59
354.15 K | 457.38
355.15 K | 457.9
